Active and inactive are the calls of the source. The rule behind the calls is not given here.

Data on two molecules can be found in ChEMBL document CHEMBL3421538, “Structure-activity relationships and molecular studies of novel arylpiperazinylalkyl purine-2,4-diones and purine-2,4,8-triones with antidepressant and anxiolytic-like activity” (Eur J Med Chem, 2015).

Data set [1] has as its system Mus musculus. In words: Toxicity in Swiss mouse assessed as spontaneous locomotor activity at 5 to 20 mg/kg, ip measured during 2 to 6 mins. Also on record: route intraperitoneal. The data set is classed as organism-based. Conditions: in vivo.
The target in data set [2] is T1, 5-hydroxytryptamine receptor 1A (Rattus norvegicus, UniProt P19327).
T1 sequence (P19327 whole entry): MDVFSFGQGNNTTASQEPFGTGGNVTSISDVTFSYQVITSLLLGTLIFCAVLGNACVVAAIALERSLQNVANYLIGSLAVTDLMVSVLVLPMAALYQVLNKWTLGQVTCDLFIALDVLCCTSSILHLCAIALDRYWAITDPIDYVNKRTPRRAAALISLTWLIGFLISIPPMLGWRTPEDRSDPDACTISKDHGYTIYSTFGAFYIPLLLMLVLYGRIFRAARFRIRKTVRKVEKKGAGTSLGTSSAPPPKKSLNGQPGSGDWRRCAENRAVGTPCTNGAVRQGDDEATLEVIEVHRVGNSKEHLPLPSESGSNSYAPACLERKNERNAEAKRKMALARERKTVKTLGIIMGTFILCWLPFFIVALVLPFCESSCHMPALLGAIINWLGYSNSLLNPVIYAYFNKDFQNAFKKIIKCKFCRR
In words: Displacement of [3H]8-OH-DPAT from rat hippocampus 5-HT1A receptor incubated for 20 mins by microbeta plate reader based method. In general terms: In a radioligand displacement assay an active substance lowers the binding of a labelled ligand.

Data set [3] relates to Mus musculus. In words: Antidepressant-like activity in Swiss mouse assessed as reduction in immobility time at 10 mg/kg, ip administered 60 mins before test. Conditions: route intraperitoneal. On the set-up: scale not given: the % may be the effect or the level left. The data set is classed as functional.
Data set [4] addresses T2, D(2) dopamine receptor (Homo sapiens, UniProt P14416). In words: Agonist activity at human D2L receptor expressed in HEK293 cells assessed as stimulation of cAMP levels at 0.1 uM relative to dopamine. It is filed as functional, cell-based. In general terms: Cyclic AMP is a second messenger, typically raised through Gs and lowered through Gi signalling.
In data set [5] the test system is Mus musculus. The experiment in a line: Toxicity in Swiss mouse assessed as spontaneous locomotor activity at 2.5 to 10 mg/kg, ip measured during 2 to 6 mins. It is filed as organism-based. Also on record: route intraperitoneal. Particulars: in vivo.
Data set [6] relates to Mus musculus. The experiment in a line: Antidepressant-like activity in Swiss mouse assessed as reduction in immobility time at 2.5 to 10 mg/kg, ip administered 60 mins before test. The data set is classed as functional, organism-based.
In data set [7] the target is 5-hydroxytryptamine receptor 7 (Homo sapiens, UniProt P34969). In words: Displacement of [3H]LSD from human recombinant 5-HT7 receptor expressed in CHOK1 cells incubated for 60 mins by microbeta plate reader based method. It is filed as cell-based, CHO-K1.
For data set [8], the system named is Mus musculus. In words: Anxiolytic-like activity in Swiss mouse assessed as increase in number of punished crossings measured during 60 seconds period at 2.5 mg/kg, ip by four-plate test. The data set is classed as functional. Conditions: route intraperitoneal.
Data set [9] has as its system Mus musculus. The experiment in a line: Toxicity in Swiss mouse assessed as spontaneous locomotor activity at 0.625 to 10 mg/kg, ip. On the set-up: dose 0.625-10 mg/kg, route intraperitoneal. It is filed as organism-based. Particulars: in vivo.
The target in data set [10] is T3, 5-hydroxytryptamine receptor 6 (Homo sapiens, UniProt P50406). The experiment in a line: Displacement of [3H]LSD from human recombinant 5-HT6 receptor expressed in HEK293 cells assessed as total radioligand binding at 1 uM incubated for 60 mins by microbeta plate reader based method. It is filed as cell-based.
Data set [11] relates to Mus musculus. The experiment in a line: Anxiolytic-like activity in Swiss mouse assessed as increase in number of punished crossings measured during 60 seconds period at 0.625 to 10 mg/kg, ip by four-plate test. The data set is classed as functional, organism-based.
Data set [12] addresses D(3) dopamine receptor (Homo sapiens) (UniProt P35462). The experiment in a line: Displacement of [3H]N-methylspiperone from dopamine D3 receptor (unknown origin) assessed as total radioligand binding at 1 uM incubated for 60 mins by microbeta plate reader based method.
In data set [13] the target is T4, 5-hydroxytryptamine receptor 1A (Homo sapiens) (UniProt P08908).
T4 sequence (whole entry): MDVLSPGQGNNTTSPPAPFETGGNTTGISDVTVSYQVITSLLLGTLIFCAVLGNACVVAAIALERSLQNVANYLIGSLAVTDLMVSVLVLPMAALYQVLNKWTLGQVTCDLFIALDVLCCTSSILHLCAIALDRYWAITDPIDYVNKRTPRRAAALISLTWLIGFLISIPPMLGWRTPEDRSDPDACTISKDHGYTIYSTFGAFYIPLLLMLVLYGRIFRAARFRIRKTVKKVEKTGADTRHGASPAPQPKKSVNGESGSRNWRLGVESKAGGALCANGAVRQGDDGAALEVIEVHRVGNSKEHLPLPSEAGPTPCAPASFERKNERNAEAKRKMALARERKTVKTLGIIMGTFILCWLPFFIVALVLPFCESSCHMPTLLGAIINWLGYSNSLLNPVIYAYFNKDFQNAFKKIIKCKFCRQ
In words: Antagonist activity against human 5-HT1A receptor expressed in HEK293 cells assessed as inhibition of […]-induced cAMP levels at 0.1 uM. It is filed as functional, cell-based.

Data set [14] addresses T2, D(2) dopamine receptor. In words: Antagonist activity against human dopamine D2L receptor expressed in HEK293 cells assessed as inhibition of […]-induced cAMP levels at 0.1 uM. The data set is classed as functional, cell-based.
The target in data set [15] is T4, 5-hydroxytryptamine receptor 1A (Homo sapiens). The experiment in a line: Antagonist activity against human 5-HT1A receptor expressed in HEK293 cells assessed as inhibition of […]-induced cAMP levels at 1 uM. The data set is classed as functional, cell-based.
The target in data set [16] is T5, 5-hydroxytryptamine receptor 1A (Rattus norvegicus) (UniProt P19327).
T5 sequence (whole entry): T1 sequence (P19327 whole entry)
The experiment in a line: Displacement of [3H]8-OH-DPAT from rat hippocampus 5-HT1A receptor assessed as total radioligand binding at 1 uM incubated for 20 mins by microbeta plate reader based method.

The target in data set [17] is T4, 5-hydroxytryptamine receptor 1A (Homo sapiens). In words: Agonist activity at human 5-HT1A receptor expressed in HEK293 cells assessed as stimulation of cAMP levels at 0.1 uM relative to 8-OH-DPAT. It is filed as functional, cell-based.
For data set [18], the target named is T2, D(2) dopamine receptor. The experiment in a line: Agonist activity at human D2L receptor expressed in HEK293 cells assessed as stimulation of cAMP levels at 1 uM relative to dopamine. The data set is classed as functional, cell-based.
Data set [19] deals with T3, 5-hydroxytryptamine receptor 6. The experiment in a line: Displacement of [3H]LSD from human recombinant 5-HT6 receptor expressed in HEK293 cells assessed as total radioligand binding at 1.66 x 10^-7 M incubated for 60 mins by microbeta plate reader based method. It is filed as cell-based.
For data set [20] the target is unchanged. The experiment in a line: Displacement of [3H]LSD from human recombinant 5-HT6 receptor expressed in HEK293 cells incubated for 60 mins by microbeta plate reader based method. The data set is classed as cell-based.
In data set [21] the target is T5, 5-hydroxytryptamine receptor 1A (Rattus norvegicus). The experiment in a line: Displacement of [3H]8-OH-DPAT from rat hippocampus 5-HT1A receptor assessed as total radioligand binding at 1.66 x 10^-7 M incubated for 20 mins by microbeta plate reader based method.
The target in data set [22] is T2, D(2) dopamine receptor. In words: Antagonist activity against human dopamine D2L receptor expressed in HEK293 cells assessed as inhibition of […]-induced cAMP levels at 1 uM. The data set is classed as functional, cell-based.
Data set [23] addresses T2, D(2) dopamine receptor. In words: Displacement of [3H]N-methylspiperone from human recombinant dopamine D2 receptor expressed in CHOK1 cells incubated for 60 mins by microbeta plate reader based method. The data set is classed as cell-based, CHO-K1.
Data set [24] concerns the target D(3) dopamine receptor (Homo sapiens) (UniProt P35462). In words: Displacement of [3H]N-methylspiperone from dopamine D3 receptor (unknown origin) assessed as total radioligand binding at 1.66 x 10^-7 M incubated for 60 mins by microbeta plate reader based method.
The target in data set [25] is T4, 5-hydroxytryptamine receptor 1A (Homo sapiens). In words: Agonist activity at human 5-HT1A receptor expressed in HEK293 cells assessed as stimulation of cAMP levels at 1 uM relative to 8-OH-DPAT. The data set is classed as functional, cell-based.

T3 sequence (P50406 whole entry): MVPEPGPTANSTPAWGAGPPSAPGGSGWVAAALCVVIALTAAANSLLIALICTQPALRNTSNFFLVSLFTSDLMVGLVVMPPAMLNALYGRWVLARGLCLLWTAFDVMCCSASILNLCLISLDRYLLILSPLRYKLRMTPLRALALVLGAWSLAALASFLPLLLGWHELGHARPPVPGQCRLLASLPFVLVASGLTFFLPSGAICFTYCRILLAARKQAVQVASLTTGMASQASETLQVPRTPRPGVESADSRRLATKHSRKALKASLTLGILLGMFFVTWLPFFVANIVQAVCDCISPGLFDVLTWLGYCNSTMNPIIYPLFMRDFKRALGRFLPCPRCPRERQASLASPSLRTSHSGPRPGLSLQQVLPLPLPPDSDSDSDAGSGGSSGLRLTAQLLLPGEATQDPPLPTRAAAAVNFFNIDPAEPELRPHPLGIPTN
T2 sequence (P14416 whole entry): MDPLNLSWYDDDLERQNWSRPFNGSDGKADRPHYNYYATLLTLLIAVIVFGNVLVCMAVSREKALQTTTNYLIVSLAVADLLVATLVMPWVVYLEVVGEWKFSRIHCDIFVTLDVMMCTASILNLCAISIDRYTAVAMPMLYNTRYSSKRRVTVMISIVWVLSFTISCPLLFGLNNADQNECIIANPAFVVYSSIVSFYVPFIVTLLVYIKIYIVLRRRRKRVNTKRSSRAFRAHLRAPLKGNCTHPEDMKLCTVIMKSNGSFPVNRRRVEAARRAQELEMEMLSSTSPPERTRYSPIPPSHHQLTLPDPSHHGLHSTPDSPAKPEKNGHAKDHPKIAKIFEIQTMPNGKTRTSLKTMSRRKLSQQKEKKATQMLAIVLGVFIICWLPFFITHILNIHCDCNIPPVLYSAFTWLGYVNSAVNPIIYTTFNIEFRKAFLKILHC
D(3) dopamine receptor (Homo sapiens), sequence (P35462 whole entry): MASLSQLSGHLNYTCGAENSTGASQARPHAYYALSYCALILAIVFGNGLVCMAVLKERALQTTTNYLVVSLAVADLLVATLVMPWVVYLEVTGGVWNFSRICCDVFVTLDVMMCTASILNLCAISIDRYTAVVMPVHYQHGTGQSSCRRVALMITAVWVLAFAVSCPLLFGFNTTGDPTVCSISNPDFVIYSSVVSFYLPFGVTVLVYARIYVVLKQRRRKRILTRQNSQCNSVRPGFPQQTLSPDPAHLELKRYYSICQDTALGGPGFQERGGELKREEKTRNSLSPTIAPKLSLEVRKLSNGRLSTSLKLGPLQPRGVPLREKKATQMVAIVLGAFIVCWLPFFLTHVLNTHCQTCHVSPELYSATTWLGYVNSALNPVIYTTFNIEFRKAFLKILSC
5-hydroxytryptamine receptor 7, sequence (P34969 whole entry): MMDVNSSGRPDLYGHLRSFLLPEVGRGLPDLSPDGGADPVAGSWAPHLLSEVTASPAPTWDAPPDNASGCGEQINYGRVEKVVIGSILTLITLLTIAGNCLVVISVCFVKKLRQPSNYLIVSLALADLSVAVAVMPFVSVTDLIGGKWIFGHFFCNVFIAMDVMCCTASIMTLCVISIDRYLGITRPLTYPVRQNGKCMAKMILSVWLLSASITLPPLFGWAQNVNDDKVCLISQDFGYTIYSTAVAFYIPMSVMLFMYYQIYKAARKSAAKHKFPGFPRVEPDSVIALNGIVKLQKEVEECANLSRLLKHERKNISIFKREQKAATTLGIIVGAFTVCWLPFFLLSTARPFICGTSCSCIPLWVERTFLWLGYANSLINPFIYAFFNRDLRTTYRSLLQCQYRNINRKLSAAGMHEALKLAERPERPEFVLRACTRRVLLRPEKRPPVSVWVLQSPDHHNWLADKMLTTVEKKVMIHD

In the case of `CN(C)CCCN1c2ccccc2CCc2ccccc21.Cl` [IMIPRAMINE HYDROCHLORIDE], the Activity result in data set [1] is on record as “Non-toxic”.

Take `Cc1cccc(N2CCN(CCCCn3c(C)cn4c5c(=O)n(C)c(=O)n(C)c5nc34)CC2)c1C`: the Ki in [2] was under 0.001 µM; in data set [7], 0.381 µM; in data set [20], 0.51 µM; in data set [23], 0.027 µM. Also, the Activity in data set [3] is 20%; in data set [4] it was 35.3%; in data set [5] it was “Non-toxic”; in [8], 67%; in [9] it was “Non-toxic”; in data set [10], 68%. Moreover, the Activity in data set [12] came out at 34%; in data set [16], 42%; in data set [17], 55.7%; in data set [18] it was 37.6%; in data set [19] it was 81%; in [21], 75%. The Activity in [24] worked out at 43%; in data set [25], 61.5%. The result in data set [6] and in [11] was Active. In addition, the inhibition in data set [13] was found to be 102%; in [14] it was 38.4%; in data set [15], 105%; in data set [22], 73.8%.

One may read the Ki as a dissociation constant, usually derived from enzyme kinetics or from competition with a known ligand. The term inhibition denotes the change of the read-out against control, counted positive when it falls.
